Measurements: US20250295109A1, “UNIVERSAL SYNERGIST FOR INSECT ATTRACTANTS” (North Carolina State University, priority 2022, published 2025)

Experiments:
male CEW antenna = assay: GC-EAD of female sex pheromone gland extract on male CEW antenna; parameters: species or system Helicoverpa zea; settings: compound present in CEW female sex pheromone gland extract
Description: Based on the finding that nonanal attracts male CEW in laboratory and field behavioral studies, and as described hereinbelow, a study of the female sex pheromone gland extract of Helicoverpa zea was performed using a gas chromatography-electroantennograom detector (GC-EAD), a device that couples a GC to an insect antenna, the olefactory organ of insects that serves as a biological detector. In this device, the GC separates chemicals in a mixture and presents them to the antenna, and its electrophysiological responses reveal which chemicals it senses. […]
The sex pheromone glands of multiple CEW females were dissected and the contents extracted with hexane. […] In parallel to the GC, the electrophysiological response of the antenna is recorded to identify the active compounds. […] Gland extracts were also analyzed using gas chromatography-mass spectrometry (GC-MS) (6890 GC and 5975 MS, Agilent Technologies, Palo Alto, California, United States of America) The GC-MS was operated in pulsed splitless mode (15 psi for 0.5 min, then 6 psi) and equipped with a DB-WAXetr column (30 m×0.25 mm, df=0.25 μm, Agilent Technologies, Palo Alto, California, United States of America), and helium was used as the carrier gas at an average velocity of 34 cm/s. […]

[1] = system: male corn earworm (CEW, Helicoverpa zea); assay: field trapping of male CEW in Hartstack traps, nonanal and/or 1-hexanol; type: in vivo; settings: for effectiveness in trapping male CEW, without commercial pheromone lure: 0.5% w/w level, without the commercial pheromone lure, sorghum or corn fields; for effectiveness of commercial lure in trapping male CEW when combined: 0.5% w/w with major component of commercial pheromone lure, used in combination with the commercial lure
From the text: FIG. 11 is a graph showing the results of a field trapping study of male com earworm (CEW, Helicoverpa zea) using traps containing a dispenser containing a solution of 0.5% nonanal and/or 0.5% 1-hexanol alone or also containing a dispenser for a commercial CEW sex pheromone lure. Effectiveness is reported as number of male CEW capture per day per trap.
To determine the effects of 1-hexanol and combinations of 1-hexanol and nonanal, Hartstack traps with or without the commercial CEW sex pheromone lure and with or without one or both of nonanal and 1-hexanol were placed in sorghum or corn fields. Nonanal and 1-hexanol, if present, were present at 0.5% on a weight to weight basis with the major component of the commercial pheromone lure.

Drosophila melanogaster [2] = assay: dual choice free flight cage trapping assay with glass vial traps (water or balsamic vinegar); type: in vivo; settings: 24 hours
From the text: FIG. 4 is a schematic drawing showing a design for a dual choice free flight cage trapping assay used herein to determine the effect of nonanal on trapping fruit flies (Drosophila melanogaster). A 13 centimeter (cm) by 19 cm by 9.5 cm cage with a mesh opening on the top is equipped with two glass 5.5 cm by 2.5 cm glass vial traps, each equipped with a lid fitted with a truncated pipette tip. At the bottom of each glass vial trap is either water or a fermentation attractant (i.e., balsamic vinegar). Inside each glass vial trap is another smaller glass vial containing either a solution of nonanal in dimethyl sulfoxide (DMSO) or a DMSO without nonanal. The attraction of starved Drosphila melanogaster males and females to balsamic vinegar (Bellino, Cento Fine Foods, Deptford, New Jersey, United States of America) with and without 1 μg nonanal was studied in a dual choice trapping assay. Nonanal was placed in a glass vial, separately from the balsamic vinegar, but adjacent to it. In all experiments, 20 3-4 day old, 24 hours starved flies (males and females) were given a choice between two traps. […] After 24 hours, flies in both traps were counted. Various amounts of nonanal were dissolved in DMSO, and then 10 μl of nonanal DMSO solution were placed in a separate glass vial (12×32 mm, Thermo Fisher Scientific. Waltham, Massachusetts, United States of America) adjacent to 0.4 ml of water in one trap. The other trap in the dual choice trapping assay contained 0.4 ml of water plus a separate vial containing 10 μl of DMSO. Twenty 3-4 day old, 24 hours starved flies (males and females) were given a choice between the two traps. After 24 hours, flies in both traps were counted. […] N=10. […] The attraction of starved Drosphila melanogaster males and females to balsamic vinegar to which various amounts of nonanal were added is shown in FIG. 6. Various amounts of nonanal were dissolved in DMSO, and then 10 μl of nonanal DMSO solution were placed in a separate glass vial adjacent to 0.4 ml of balsamic vinegar in one trap. […] After 24 hours, flies in both traps were counted. […]

Drosophila melanogaster [3] = assay: dual choice trapping cage assay with commercial fruit fly traps and lure (TERRO); type: in vivo; settings: 24 hours
Description: FIG. 7A is a schematic drawing showing a design for a dual choice free flight cage trapping assay used to determine the effect of nonanal on the trapping of fruit flies (Drosophila melanogaster) when used in combination with a commercial fruit fly lure. Inside a 30 centimeter (cm) by 30 cm cage are placed two commercial fruit fly traps. Inside each commercial fruit fly trap is placed 1 milliliter (mL) of a commercial fruit fly lure. In addition, in one trap (Trap 1) is placed a 1.5 mL vial containing 50 microliters (μL) dimethyl sulfoxide (DMSO), while in the other trap (Trap 2) is placed a 1.5 mL vial containing 50 μL of a solution of nonanal in DMSO. For each experiment 40 to 120 fruit flies are used. The attraction of starved Drosphila melanogaster males and females to a commercial lure and trap to which various amounts of nonanal were added is shown in FIG. 7B. In all experiments, 40 to 120 3-4 day old, 24 hours starved flies (males and females) were given a choice between two commercial fruit fly traps (sold under the tradename TERRO® traps; Model #BT2502; Senoret Chemicals Co., Inc., Lititz, Pennsylvania, United States of America). […] After 24 hours, flies in both traps were counted. […] After 24 hours, flies in both traps were counted.

Musca domestica = assay: dual choice trapping cage assay with commercial fly trap attractant (STARBAR); type: in vivo; settings: 24 hours
From the text: FIG. 8A is a schematic drawing showing a design for a dual choice free flight cage trapping assay used to determine the effect of nonanal on the trapping of house flies (Musca domestica) when used in combination with a commercial house fly lure. At the right of the drawing is shown a schematic of a 30 centimeter (cm) by 30 cm cage containing two commercial house fly traps (Trap 1 and Trap 2), each including a plastic cup fitted with a transparent lid that has an opening for the flies. An enlarged view of an individual trap is shown to the left side of the drawing. Inside each trap, at the bottom, is placed a commercial fly attractant as a lure. In addition, each trap is fitted with a 1.5 mL vial containing either 50 microliters (μL) dimethyl sulfoxide (DMSO) or 50 μL of a solution of nonanal in DMSO. For each experiment, 20 house flies are used.
The attraction of fed Musca domestica males and females to a commercial lure and a laboratory-built trap to which various amounts of nonanal were added is shown in […]. […] After 24 hours, house flies in both traps were counted. […]
The other trap in the dual choice trapping assay contained 50 mL of the commercial fly trap attractant lure plus a 50 μl of DMSO only. […] After 24 hours, flies in both traps were counted.

[4] = system: male corn earworm (CEW, Helicoverpa zea); assay: field trapping of male CEW in Hartstack traps, nonanal dose study; type: in vivo
Description: FIG. 10C is a graph showing the effectiveness of different doses of nonanal in field trapping of male corn earworm (CEW, Helicoverpa zea) using a commercial sex pheromone lure with different doses of nonanal. Effectiveness is measured as the number of male CEW captured per trap per day. The data for the two bars on the left are from traps with no commercial pheromone dispenser, while the data for the six bars on the right are from traps with the commercial pheromone dispenser in combination with the dispenser containing either paraffin oil alone (0 percent (%) nonanal) or a paraffin oil solution comprising 0.5% to 8% nonanal (weight to weight relative to the amount of the main component of the commercial sex pheromone).
Some of the traps also contained, adjacent to the glass vials, a lure comprising a rubber septum formulated with the commercial CEW sex pheromone. Assuming that the commercial pheromone lure contained about 2 mg of the major component (i.e., (Z)-11-hexadecenal), the solutions in the glass vials were prepared to contain various amounts (0%, 0.5%, 1%, 2%, 4%, or 8%) of nonanal on a weight to weight basis with the (Z)-11-hexadecenal.

CCCCCCO [1-hexanol]
EAD response of the antenna (male CEW antenna): elicit an EAD response in the antenna | effectiveness in trapping male CEW, without commercial pheromone lure [1]: not effective in trapping male CEW | effectiveness of commercial lure in trapping male CEW when combined [1]: improved its effectiveness

CCCCCCCCC=O [nonanal]
attraction of flies to balsamic vinegar at highest amount of nonanal (Drosophila melanogaster [2]; highest amount of nonanal (1000 μg) in DMSO adjacent to balsamic vinegar): interferes with attraction of flies to balsamic vinegar | flies trapped, nonanal trap versus trap without nonanal (Drosophila melanogaster [2]; increasing amount of nonanal (e.g., 1 μg) in DMSO in vial adjacent to 0.4 ml balsamic vinegar, other trap balsamic vinegar and DMSO): more flies are trapped | flies trapped, nonanal trap versus trap without nonanal (Drosophila melanogaster [2]; nonanal at various concentrations in DMSO (10 μl) in vial adjacent to 0.4 ml water, other trap water and DMSO only, starved males and females): does not trap any more flies than traps containing water and DMSO only | flies trapped, nonanal trap versus trap without nonanal (Drosophila melanogaster [3]; increasing amount of nonanal in 50 μl DMSO with 1 mL commercial fruit fly lure, other trap lure plus DMSO): more flies are trapped | attraction of flies to commercial fruit fly lure at too much nonanal (Drosophila melanogaster [3]; too much nonanal in 50 μl DMSO with 1 mL commercial fruit fly lure): interferes with attraction of flies to the commercial fruit fly lure | house flies trapped, nonanal trap versus trap without nonanal (Musca domestica; increasing amount of nonanal in 50 μl DMSO with 50 mL commercial fly trap attractant lure, other trap lure plus DMSO, fed flies): more house flies are trapped | attraction of house flies to commercial fly trap attractant lure at too much nonanal (Musca domestica; too much nonanal in 50 μl DMSO with 50 mL commercial fly trap attractant lure): interferes with attraction of flies to the commercial fly trap attractant lure | EAD response of the antenna (male CEW antenna): elicit an EAD response in the antenna | trap effectiveness with commercial CEW sex pheromone ([4]; e.g. 0.5% to 4% nonanal (w/w to (Z)-11-hexadecenal) added to trap with commercial CEW sex pheromone): increased the trap effectiveness | effectiveness in capturing male CEW, no commercial pheromone ([4]; traps containing only nonanal in paraffin oil, no commercial CEW sex pheromone lure): not effective in capturing male CEW | effectiveness in trapping male CEW, without commercial pheromone lure [1]: not effective in trapping male CEW | effectiveness of commercial lure in trapping male CEW when combined [1]: improved its effectiveness
